Laboratory results reported in US6645983B1, “Pharmaceutical compositions comprising 4-quinolones for treating cancers” (Laboratoire L. Lafon, priority 1999, dated 2003).

Legend:
[1] = system: A-427; experiment: MTT test, cytotoxic activity on non-clonogenic cell lines; format: cell-based; details: Homo sapiens, 10^−5 M, 72 hours of incubation, control condition = 100%, mean value, read-out: mean optical density as percentage of control, A-427
Experimental: (§1) The principle of the MTT test is based on the mitochondrial reduction, by the metabolically active live cells, of the yellow-colored product MTT (3-(4,5-dimethylthiazol-2-yl)-2,5-diphenyltetrazolium bromide) to a blue-colored product, formazan. The amount of formazan thus obtained is directly proportional to the amount of live cells present in the culture well(s). This amount of formazan is measured by spectrophotometry.
(§2) The cell lines are maintained as a monolayer culture at 37° C. in stoppered culture dishes containing MEM 25 MM HEPES (Minimum Essential Medium) base medium. This medium is suited to the growth of a range of various mammalian diploid or primary cells. This medium is then supplemented with:
(§3) The 12 human cancer cell lines which were used were obtained from the American Type Culture Collection (ATCC, Rockville, Md., USA). These 12 cell lines are:
(§4) Experimentally, 100 μl of a cell suspension containing 20 000 to 50 000 (depending on the cell type used) cells/ml of culture medium are inoculated -in 96-well flat-bottomed multi-well plates and are left to stand in an incubator at 37° C., 5% CO2 and 70% humidity. After an incubation time of 24 hours, the culture medium is replaced with 100 μl of fresh medium containing either the various test compounds—at concentrations varying from 10^−5 to 10^−10 M—or the solvent having served for dissolving the products to be tested (control condition). […] The microplates are thus incubated for 3 hours at 37° C., then centrifuged for 10 minutes at 400 g. The yellowish solution of MTT is removed and the blue formazan crystals formed in the cell region are dissolved in 100 μl or DMSO. The microplates are then shaken for 5 minutes. […] Software incorporated in the spectrophotometer calculates the average optical density values and the standard deviation (SD) and standard error of mean (SEM) values.

[2] = system: A549; experiment: as above; format: cell-based; details: Homo sapiens, 10^−5 M, 72 hours of incubation, control condition = 100%, mean value, read-out: mean optical density as percentage of control, A549
Experimental: as §1, §2, §3, §4

[3] = system: HCT-15; experiment: as above; format: cell-based; details: Homo sapiens, 10^−5 M, 72 hours of incubation, control condition = 100%, mean value, read-out: mean optical density as percentage of control, HCT-16
Experimental: as §1, §2, §3, §4

[4] = system: LoVo; experiment: as above; format: cell-based; details: Homo sapiens, 10^−5 M, 72 hours of incubation, control condition = 100%, mean value, read-out: mean optical density as percentage of control, LoVo
Experimental: as §1, §2, §3, §4

[5] = system: MCF7; experiment: as above; format: cell-based; details: Homo sapiens, 10^−5 M, 72 hours of incubation, control condition = 100%, mean value, read-out: mean optical density as percentage of control, MCF7
Experimental: as §1, §2, §3, §4

[6] = system: PC-3; experiment: as above; format: cell-based; details: Homo sapiens, 10^−5 M, 72 hours of incubation, control condition = 100%, mean value, read-out: mean optical density as percentage of control, PC-3
Experimental: as §1, §2, §3, §4

[7] = system: T-47D; experiment: as above; format: cell-based; details: Homo sapiens, T47D; 10^−5 M, 72 hours of incubation, control condition = 100%, mean value; read-out: mean optical density as percentage of control, T-47D
Experimental: as §1, §2, §3, §4

[8] = system: U-373MG; experiment: as above; format: cell-based; details: Homo sapiens, U373 MG; 10^−5 M, 72 hours of incubation, control condition = 100%, mean value; read-out: mean optical density as percentage of control, U-373MG
Experimental: as §1, §2, §3, §4

[9] = system: U-87MG; experiment: as above; format: cell-based; details: Homo sapiens, U-87 MG; 10^−5 M, 72 hours of incubation, control condition = 100%, mean value; read-out: mean optical density as percentage of control, U-87MG
Experimental: as §1, §2, §3, §4

[10] = system: SW1088; experiment: as above; format: cell-based; details: Homo sapiens, 10^−5 M, 72 hours of incubation, control condition = 100%, mean value, read-out: mean optical density as percentage of control, SW1088
Experimental: as §1, §2, §3
SW1088 (code ATCC: HTB-12) which is an astro-cytoma,
as §4

[11] = system: J82; experiment: as above; format: cell-based; details: Homo sapiens, 10^−5 M, 72 hours of incubation, control condition = 100%, mean value, read-out: mean optical density as percentage of control, J82
Experimental: as §1, §2, §3
(§5) J82 (code ATCC: HTB-1) and T24 (code ATCC: HTB-4) which are two bladder cancers,
as §4

[12] = system: T24; experiment: as above; format: cell-based; details: Homo sapiens, T-24; 10^−5 M, 72 hours of incubation, control condition = 100%, mean value; read-out: mean optical density as percentage of control, T24
Experimental: as §1, §2, §3, §5, §4

[13] = Determination of the maximum tolerated dose (MTD); details: B6D2F1/Jico, mouse, in vivo, ip; single intraperitoneal administration, doses 2.5 to 160 mg/kg, survival over 14 days
Experimental: The evaluation of the maximum tolerated dose was performed on 4- to 6-week-old B6D2F1/Jico mice. The compounds were administered intraperitoneally at increasing doses ranging from 2.5 to 160 mg/kg. The value of the MTD (expressed in mg/kg) is determined from the observation of the survival rate of the animals over a 14-day period after a single administration of the product under consideration. The change in weight of the animals is also monitored during this period. When the MTD value is greater than 160 mg/kg, the MTD value is considered as being 160 mg/kg by default.

| Structure (SMILES) | viability at 10 µM [1] [%] | viability at 10 µM [2] [%] | viability at 10 µM [3] [%] | viability at 10 µM [4] [%] | viability at 10 µM [5] [%] | viability at 10 µM [6] [%] | viability at 10 µM [7] [%] | viability at 10 µM [8] [%] | viability at 10 µM [9] [%] | viability at 10 µM [10] [%] | viability at 10 µM [11] [%] | viability at 10 µM [12] [%] | MTD at 14 day [13] [mg/kg] |
| --- | --- | --- | --- | --- | --- | --- | --- | --- | --- | --- | --- | --- | --- |
| CCOC(=O)Cn1cc(-c2ccc(OC)cc2)c(=O)c2c(OC)cc(OC)cc21 [CRL8360, Ethyl 2-[5,7-dimethoxy-3-(4-methoxyphenyl)-4-oxo-1,4-dihydro-1-quinolinyl]acetate] | 71.3 | 85.6 | 91.8 | 98.6 | 95.3 | 81.5 | 82.1 | 88 | 97.6 | 75.1 | 81.2 | 87.5 | > 160 |
| COc1ccc(-c2cn(C)c3c(OC)ccc(OC)c3c2=O)cc1 [CRL8371] | 30.8 | 42.9 | 25.2 | 45.6 | 45.6 | 54.2 | 49.3 | 42.8 | 58.7 | 40.8 | 76.3 | 52.2 | 40 |
| COc1ccc(-c2cn(CC#N)c3cc(OC)cc(OC)c3c2=O)cc1 [CRL8372, [5,7-Dimethoxy-3-(4-methoxyphenyl)-4-oxo-1,4-dihydro-1-quinolinyl]acetonitrile] | 93.9 | 93.4 | 84.3 | 83.9 | 96.6 | 110 | 65.7 | 94.8 | 92.9 | 98.1 | 93 | 81.2 | > 160 |
| COc1ccc(-c2cn(C)c3cc(OC)cc(O)c3c2=O)cc1 [CRL8377, 5-Hydroxy-7-methoxy-3-(4-methoxyphenyl)-1-methyl-1,4-dihydro-4-quinolinone] | 26.5 | 67 | 86.6 | 85 | 104 | 87.4 | 66.9 | 56.7 | 49.5 | 99.8 | 98.7 | 85 | > 160 |
| COc1ccc(-c2cn(C)c3ccc(OC)cc3c2=O)cc1 [CRL8378, 6-Methoxy-3-(4-methoxyphenyl)-1-methyl-1,4-dihydro-4-quinolinone] | 72.3 | 91 | 105 | 107 | 93.5 | 100 | 110 | 98.1 | 73 | 108 | 99.6 | 89.2 | > 160 |
| COc1ccc2c(c1)c(=O)c(-c1ccccc1)cn2C [CRL8379, 6-Methoxy-1-methyl-3-phenyl-1,4-dihydro-4-quinolinone] | 94.2 | 94 | 106 | 102 | 91.6 | 99.2 | 99.3 | 113 | 95.3 | 98.3 | 101 | 102 | > 160 |
